Paper PMC6941357, “An in vitro toolbox to accelerate anti-malarial drug discovery and development” (Malaria Journal, 2020)
Converted amounts (≈) assume the structure as drawn. “And” between values parts separate entries of the source, which are not always exact repeats. Equal values may be shown once.

Experiments:
[1] = Solubility in biorelevant media; conditions: for solubility in all media tested / solubility at 1 h: FaSSGF; for solubility in all media tested: FaSSIF-V2, FeSSIF-V2, PBS pH 7.4; for solubility / solubility at 1 h: thermodynamic from solid
Protocol: Solubility of each active pharmaceutical ingredient was evaluated at 37 °C in pH 7.4 phosphate buffered saline (prepared as described for the partitioning experiments), fasted (FaSSIF-V2) and fed (FeSSIF-V2) state simulated intestinal fluids and fasted state simulated gastric fluid (FaSSGF) as described by Jantratid et al.. […] Samples were vortexed and placed in a 37 °C incubator on an orbital mixer (IKA® VXR basic Vibrax® orbital mixer) set at 600 rpm. Sampling times were 1 h for FaSSGF or 5–6 h for FaSSIF-V2, FeSSIF-V2, and PBS. These times were used to reflect the maximal likely residence times within the stomach and small intestine, respectively. Sampling was carried out by centrifuging each sample at 10,000 rpm for 3 min, transferring 300 µL aliquots into fresh Eppendorf tubes and centrifuging these tubes again at 10,000 rpm for 3 min. Triplicate aliquots of the supernatant were then removed and diluted 1:2 in 50% aqueous methanol and then again in 50% aqueous acetonitrile to be within the analytical concentration range. Samples were analysed by LC–MS along with calibration standards (Additional file 1: Table S2).

CYP2C19 = CYP2C19 (Homo sapiens, UniProt P33261); assay: in vitro
Sequence of CYP2C19 (P33261 whole entry, canonical isoform): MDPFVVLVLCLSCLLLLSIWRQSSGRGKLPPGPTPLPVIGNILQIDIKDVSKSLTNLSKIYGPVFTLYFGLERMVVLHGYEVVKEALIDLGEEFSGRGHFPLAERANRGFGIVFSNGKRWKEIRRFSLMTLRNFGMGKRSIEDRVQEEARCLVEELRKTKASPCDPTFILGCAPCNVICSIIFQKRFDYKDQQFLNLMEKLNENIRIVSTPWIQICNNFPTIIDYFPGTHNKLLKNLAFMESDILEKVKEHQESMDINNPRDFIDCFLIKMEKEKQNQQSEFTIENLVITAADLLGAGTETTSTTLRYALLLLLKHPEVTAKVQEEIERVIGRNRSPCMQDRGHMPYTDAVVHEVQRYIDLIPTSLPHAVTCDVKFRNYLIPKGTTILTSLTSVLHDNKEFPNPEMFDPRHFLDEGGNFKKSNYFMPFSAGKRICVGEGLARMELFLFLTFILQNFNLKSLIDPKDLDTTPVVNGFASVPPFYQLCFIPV
Method in brief: (§1)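 Human liver microsomes were incubated with an isoform-specific probe substrate, and formation of the CYP-mediated metabolite was measured by LC–MS after quenching in ice-cold acetonitrile with diazepam as internal standard. Inhibition was expressed as percent reduction in metabolite formation versus an uninhibited control.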

CYP2C9 = CYP2C9 (Homo sapiens, UniProt P11712); assay: in vitro
Sequence of CYP2C9 (P11712 whole entry): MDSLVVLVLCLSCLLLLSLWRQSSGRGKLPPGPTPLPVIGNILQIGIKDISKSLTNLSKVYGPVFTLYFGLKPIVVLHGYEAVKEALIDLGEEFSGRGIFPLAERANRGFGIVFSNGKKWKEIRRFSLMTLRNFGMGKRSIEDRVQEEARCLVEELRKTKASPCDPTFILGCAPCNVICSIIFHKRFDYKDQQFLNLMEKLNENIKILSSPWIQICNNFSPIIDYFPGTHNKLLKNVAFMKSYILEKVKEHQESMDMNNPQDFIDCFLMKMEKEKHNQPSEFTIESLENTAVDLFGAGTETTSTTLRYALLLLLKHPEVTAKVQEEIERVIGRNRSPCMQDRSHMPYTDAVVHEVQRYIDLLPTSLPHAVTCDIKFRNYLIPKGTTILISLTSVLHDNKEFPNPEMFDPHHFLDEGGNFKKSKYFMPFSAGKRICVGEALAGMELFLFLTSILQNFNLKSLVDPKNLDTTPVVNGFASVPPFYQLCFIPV
Method in brief: as §1

CYP3A4 = CYP3A4 (Homo sapiens, UniProt P08684); assay: in vitro
Sequence of CYP3A4 (P08684 whole entry): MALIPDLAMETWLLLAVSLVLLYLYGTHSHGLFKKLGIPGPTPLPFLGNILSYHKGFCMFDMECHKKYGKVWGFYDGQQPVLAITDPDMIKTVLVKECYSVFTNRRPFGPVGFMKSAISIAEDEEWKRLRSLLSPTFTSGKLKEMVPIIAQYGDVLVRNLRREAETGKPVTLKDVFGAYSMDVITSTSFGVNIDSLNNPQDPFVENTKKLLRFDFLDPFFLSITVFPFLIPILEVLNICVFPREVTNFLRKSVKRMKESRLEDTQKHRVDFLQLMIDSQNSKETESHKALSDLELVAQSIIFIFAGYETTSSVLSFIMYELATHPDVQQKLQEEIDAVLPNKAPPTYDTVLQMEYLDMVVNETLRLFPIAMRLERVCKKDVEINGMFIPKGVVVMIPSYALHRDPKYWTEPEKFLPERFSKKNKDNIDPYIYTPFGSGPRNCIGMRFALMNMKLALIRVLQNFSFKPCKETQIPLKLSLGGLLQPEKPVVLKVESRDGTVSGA
Method in brief: as §1

[2] = Bidirectional permeability across Caco-2 cell monolayers; conditions: human
Method in brief: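 Donor and acceptor concentrations measured by LC–MS to give Papp, mass balance and efflux ratio (mean B–A over A–B Papp). Media were pH 7.4 HEPES-buffered HBSS or human plasma on both sides; for plasma, Papp used the donor fraction unbound. Donor contained 0.1% v/v DMSO.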

[3] = Binding to human liver microsomes via ultracentrifugation; format: in vitro ADME; conditions: human, liver microsomes, pH 7.4, 0.4 mg/mL protein, read-out: Fraction unbound, HLM
Protocol: A suspension of human liver microsomes (HLM, XenoTech LLC, Lenexa, KS, USA) was prepared in 0.1 M phosphate buffer (pH 7.4) at a protein concentration of 0.4 mg/mL immediately prior to the experiment.
An ultracentrifugation method adapted from a previous publication was initially used to assess plasma protein binding and binding in the other media. […] Additional ultracentrifuge tubes containing spiked matrix were maintained at 37 °C, 5% or 10% CO2 or normal atmosphere conditions, with aliquots being taken within 0.5 h of the start and at the end of ultracentrifugation to serve as controls for the assessment of stability and to obtain a measure of the total concentration (Ctotal). Following ultracentrifugation, the pH was checked and an aliquot of protein-free supernate was taken from each ultracentrifuge tube for determination of the unbound concentration (Cunbound).
Total matrix and protein free samples were analysed using a matrix matching approach whereby each sample was mixed in a 1:1 ratio with the opposite blank medium (i.e. blank total matrix or blank protein free buffer). For example, plasma samples were mixed with blank pH 7.4 buffer whereas plasma supernatant samples were mixed with blank plasma. Each of the sample sets were then assayed against a common calibration curve prepared in a 1:1 mixture of total matrix and protein free pH 7.4 buffer. […] The standard deviation for fu was calculated using the propagation of errors approach as described previously. The potential for compound degradation was assessed by comparing the average value for Ctotal at the start and end of the experiment.

[4] = 37 °C, fassgf or other biorelevant
[5] = phosphate buffered saline pH 7.4, 37 °C, pH 7.4, aqueous buffer

Compound | Solubility PBS7.4 (5–6 h) ([1]; 37 °C) | Solubility FaSSGF (1 h) ([1]; 37 °C) | Solubility FaSSIF-V2 (5–6 h) ([1]; 37 °C) | Solubility FeSSIF-V2 (5–6 h) ([1]; 37 °C) | CYP2C19 % inhibition at max conc (CYP2C19; microsomes) | IC50 (CYP2C19; microsomes) [µM] | CYP2C9 % inhibition at max conc (CYP2C9; microsomes) | IC50 (CYP2C9; microsomes) [µM] | CYP3A4 (midaz) % inhibition at max conc (CYP3A4; microsomes) | CYP3A4 (test) % inhibition at max conc (CYP3A4; microsomes) | IC50 (CYP3A4; microsomes) [µM] | also measured
Cc1cc(Nc2ccc(C(F)(F)F)nc2)n2nc(C(C)(F)F)nc2n1 [DSM421] | 85.5 µg/mL and 239 µM | – | – | – | – | – | – | – | – | – | – | –
CS(=O)(=O)O.FC1CCN(CCOc2ccc(C3CCC4(CC3)OOC3(OO4)C4CC5CC(C4)CC3C5)cc2)CC1 (centres unmarked) [TDD-E209] | 0.056 µg/mL and 0.112 µM | 211 µg/mL and 421 µM | 87.2 µg/mL and 174 µM | > 2000 µg/mL and > 4000 µM | – | – | – | – | – | – | – | –
CCc1nc(N)nc(N)c1OCCCOc1ccccc1CCC(=O)O.Cl [P218] | 1070 µg/mL and 2960 µM | > 2000 µg/mL and > 5550 µM | 408 µg/mL and 1130 µM | 525 µg/mL and 1460 µM | nmi | > 20 | nmi | > 20 | nmi | nmi | > 20 | solubility in all media tested [1]: 400 to 500 µg/mL
C[C@H]1[C@H](OC(=O)CCC(=O)O)O[C@@H]2O[C@@]3(C)CC[C@H]4[C@H](C)CC[C@@H]1[C@@]24OO3 [Artesunate] | – | – | – | – | nmi | – | nmi | – | nmi | nmi | – | solubility [1, 4]: 321 µg/mL (≈ 835 µM); solubility at 1 h [1, 4]: 835 µM (≈ 321 µg/mL); solubility ([1]; FaSSIF-V2, 37 °C, fassif): 1690 µg/mL and 4390 µM; solubility ([1]; FeSSIF-V2, 37 °C, fessif): 1720 µg/mL and 4490 µM; solubility [1, 5]: 1680 µg/mL and 4370 µM; IC50 (CYP2C19): > 20 µM; IC50 (CYP2C9): > 20 µM; IC50 (CYP3A4; human, microsomes, pH 7.4, CYP3A4 (test) IC50): > 20 µM; Papp B→A ([2]; Caco-2, pH 7.4): 2.8 ± 0.48 ×10⁻⁶ cm/s; Papp A→B ([2]; Caco-2, pH 7.4, A–B Papp, matrix: pH 7.4 buffer): 3.4 ×10⁻⁶ cm/s
OC(c1cc(C(F)(F)F)nc2c(C(F)(F)F)cccc12)C1CCCCN1 (centres unmarked) [Mefloquine] | – | – | – | – | – | – | nmi | – | nmi | – | – | solubility at 1 h [1, 4]: 740 µg/mL and 1960 µM; solubility ([1]; FaSSIF-V2, 37 °C, fassif): 584 µg/mL and 1540 µM; solubility ([1]; FeSSIF-V2, 37 °C, fessif): > 2000 µg/mL and > 5200 µM; solubility [1, 5]: 290 µg/mL and 767 µM; inhibition at 20 µM (CYP3A4; human, microsomes, pH 7.4, CYP3A4 (test) % inhibition at max conc): 29%; fraction unbound at […] [3]: 0.05 ± 0.006
CCN(CC)CCCNc1ccnc2cc(Cl)ccc12.Cl.Cl [AQ-13] | 1480 µg/mL and 5070 µM | > 2000 µg/mL and > 6850 µM | > 2000 µg/mL and > 6850 µM | > 2000 µg/mL and > 6850 µM | nmi | > 20 | nmi | > 20 | nmi | nmi | > 20 | –
COc1cc2[nH]c(C)c(-c3ccc(Oc4ccc(OC(F)(F)F)cc4)cc3)c(=O)c2cc1Cl [ELQ300] | 0.102 µg/mL and 0.214 µM | 0.929 µg/mL and 1.95 µM | 0.524 µg/mL and 1.10 µM | 0.065 µg/mL and 0.137 µM | 41% | > 20 | – | 7.5 | – | nmi | > 20 | Ki (CYP2C9; microsomes): 5.4 µM
COc1cc(N[C@H](C)CCCN)c2nccc(C)c2c1Oc1ccc(Cl)c(Cl)c1 [NPC1161B] | 5.44 µg/mL and 12.5 µM | 1520 µg/mL and 3500 µM | 19.9 µg/mL and 45.8 µM | > 2000 µg/mL and > 4600 µM | – | 9.6 | 37% | > 20 | 37% | – | – | Ki (CYP2C19; microsomes): 5.7 µM; Ki (CYP3A4; microsomes): 8.2 µM
CC(C)(C)NCc1cc(C(C)(C)C)cc(-c2cnc(C(F)(F)F)c(F)c2)c1O [JPC3210] | 0.800 µg/mL and 2.01 µM | 213 µg/mL and 535 µM | 7.60 µg/mL and 19.1 µM | 131 µg/mL and 329 µM | nmi | > 20 | nmi | > 20 | nmi | nmi | > 20 | –
CC(C)(C)NCc1cc(Nc2ccnc3cc(Cl)ccc23)c2c(c1O)CCCC2 [Naphthoquine] | 28.5 µg/mL and 69.5 µM | > 2000 µg/mL and > 4880 µM | 410 µg/mL and 1000 µM | 941 µg/mL and 2300 µM | nmi | > 20 | nmi | > 20 | 41% | 38% | > 20 | –
O=C(NCCN1CCCC1)c1cc(-c2ccc(CN3CCOCC3)cc2)nc2ccc(F)cc12 [M5717] | – | – | – | – | nmi | > 20 | nmi | > 20 | nmi | nmi | > 20 | solubility in all media tested [1]: > 2000 µg/mL
CN(C)C[c-]1cccc1CNc1ccnc2cc(Cl)ccc12.[Fe+2].c1cc[cH-]c1 (centres unmarked) [Ferroquine] | 4.9 µg/mL and 11 µM | > 2000 µg/mL and > 4600 µM | 320 µg/mL and 738 µM | > 2000 µg/mL and > 4600 µM | nmi | > 20 | nmi | > 20 | – | 42% | – | Ki (CYP3A4; microsomes): 5.2 µM
CCNCc1cc(Nc2ccnc3cc(Cl)ccc23)ccc1O [Desethylamodiaquine] | – | – | – | – | nmi | – | nmi | – | nmi | – | – | IC50 (CYP2C19): > 18 µM; IC50 (CYP2C9): > 18 µM; IC50 (CYP3A4; CYP3A4 (midaz) IC50, human liver microsomes, CYP3A4 (midaz), highest concentration tested 20 µM): > 18 µM
